Data taken from ChEMBL document CHEMBL5465560, “Selectivity Literature for EUbOPEN Chemogenomic Library” (2024).

Columns and labels:
[1] = target: Macrophage-stimulating protein receptor (Homo sapiens, UniProt Q04912); experiment: Selectivity interaction (KinomeScan (DiscoverX)) EUB0000229b MST1R; conditions: at 10 µM
[2] = target: Ribosomal protein S6 kinase alpha-4 (Homo sapiens) (UniProt O75676); experiment: Selectivity interaction (KinomeScan (DiscoverX)) EUB0000045b RPS6KA4
[3] = target: Ribosomal protein S6 kinase alpha-2 (Homo sapiens) (UniProt Q15349); experiment: Selectivity interaction (KinomeScan (DiscoverX)) EUB0001079a RPS6KA2; conditions: at 1 µM
[4] = target: Histone-lysine N-methyltransferase 2A (Homo sapiens) (UniProt Q03164); experiment: Selectivity interaction (Methyltransferase screen (radiometric assays, panel of 8 PRMTs, 21 protein lysine methyltransferases, 3 DNA methyltransferases, and one RNA methyltransferase)) EUB0000272b MLL
Histone-lysine N-methyltransferase 2A (Homo sapiens), sequence (Q03164 1-2718 limits assumed): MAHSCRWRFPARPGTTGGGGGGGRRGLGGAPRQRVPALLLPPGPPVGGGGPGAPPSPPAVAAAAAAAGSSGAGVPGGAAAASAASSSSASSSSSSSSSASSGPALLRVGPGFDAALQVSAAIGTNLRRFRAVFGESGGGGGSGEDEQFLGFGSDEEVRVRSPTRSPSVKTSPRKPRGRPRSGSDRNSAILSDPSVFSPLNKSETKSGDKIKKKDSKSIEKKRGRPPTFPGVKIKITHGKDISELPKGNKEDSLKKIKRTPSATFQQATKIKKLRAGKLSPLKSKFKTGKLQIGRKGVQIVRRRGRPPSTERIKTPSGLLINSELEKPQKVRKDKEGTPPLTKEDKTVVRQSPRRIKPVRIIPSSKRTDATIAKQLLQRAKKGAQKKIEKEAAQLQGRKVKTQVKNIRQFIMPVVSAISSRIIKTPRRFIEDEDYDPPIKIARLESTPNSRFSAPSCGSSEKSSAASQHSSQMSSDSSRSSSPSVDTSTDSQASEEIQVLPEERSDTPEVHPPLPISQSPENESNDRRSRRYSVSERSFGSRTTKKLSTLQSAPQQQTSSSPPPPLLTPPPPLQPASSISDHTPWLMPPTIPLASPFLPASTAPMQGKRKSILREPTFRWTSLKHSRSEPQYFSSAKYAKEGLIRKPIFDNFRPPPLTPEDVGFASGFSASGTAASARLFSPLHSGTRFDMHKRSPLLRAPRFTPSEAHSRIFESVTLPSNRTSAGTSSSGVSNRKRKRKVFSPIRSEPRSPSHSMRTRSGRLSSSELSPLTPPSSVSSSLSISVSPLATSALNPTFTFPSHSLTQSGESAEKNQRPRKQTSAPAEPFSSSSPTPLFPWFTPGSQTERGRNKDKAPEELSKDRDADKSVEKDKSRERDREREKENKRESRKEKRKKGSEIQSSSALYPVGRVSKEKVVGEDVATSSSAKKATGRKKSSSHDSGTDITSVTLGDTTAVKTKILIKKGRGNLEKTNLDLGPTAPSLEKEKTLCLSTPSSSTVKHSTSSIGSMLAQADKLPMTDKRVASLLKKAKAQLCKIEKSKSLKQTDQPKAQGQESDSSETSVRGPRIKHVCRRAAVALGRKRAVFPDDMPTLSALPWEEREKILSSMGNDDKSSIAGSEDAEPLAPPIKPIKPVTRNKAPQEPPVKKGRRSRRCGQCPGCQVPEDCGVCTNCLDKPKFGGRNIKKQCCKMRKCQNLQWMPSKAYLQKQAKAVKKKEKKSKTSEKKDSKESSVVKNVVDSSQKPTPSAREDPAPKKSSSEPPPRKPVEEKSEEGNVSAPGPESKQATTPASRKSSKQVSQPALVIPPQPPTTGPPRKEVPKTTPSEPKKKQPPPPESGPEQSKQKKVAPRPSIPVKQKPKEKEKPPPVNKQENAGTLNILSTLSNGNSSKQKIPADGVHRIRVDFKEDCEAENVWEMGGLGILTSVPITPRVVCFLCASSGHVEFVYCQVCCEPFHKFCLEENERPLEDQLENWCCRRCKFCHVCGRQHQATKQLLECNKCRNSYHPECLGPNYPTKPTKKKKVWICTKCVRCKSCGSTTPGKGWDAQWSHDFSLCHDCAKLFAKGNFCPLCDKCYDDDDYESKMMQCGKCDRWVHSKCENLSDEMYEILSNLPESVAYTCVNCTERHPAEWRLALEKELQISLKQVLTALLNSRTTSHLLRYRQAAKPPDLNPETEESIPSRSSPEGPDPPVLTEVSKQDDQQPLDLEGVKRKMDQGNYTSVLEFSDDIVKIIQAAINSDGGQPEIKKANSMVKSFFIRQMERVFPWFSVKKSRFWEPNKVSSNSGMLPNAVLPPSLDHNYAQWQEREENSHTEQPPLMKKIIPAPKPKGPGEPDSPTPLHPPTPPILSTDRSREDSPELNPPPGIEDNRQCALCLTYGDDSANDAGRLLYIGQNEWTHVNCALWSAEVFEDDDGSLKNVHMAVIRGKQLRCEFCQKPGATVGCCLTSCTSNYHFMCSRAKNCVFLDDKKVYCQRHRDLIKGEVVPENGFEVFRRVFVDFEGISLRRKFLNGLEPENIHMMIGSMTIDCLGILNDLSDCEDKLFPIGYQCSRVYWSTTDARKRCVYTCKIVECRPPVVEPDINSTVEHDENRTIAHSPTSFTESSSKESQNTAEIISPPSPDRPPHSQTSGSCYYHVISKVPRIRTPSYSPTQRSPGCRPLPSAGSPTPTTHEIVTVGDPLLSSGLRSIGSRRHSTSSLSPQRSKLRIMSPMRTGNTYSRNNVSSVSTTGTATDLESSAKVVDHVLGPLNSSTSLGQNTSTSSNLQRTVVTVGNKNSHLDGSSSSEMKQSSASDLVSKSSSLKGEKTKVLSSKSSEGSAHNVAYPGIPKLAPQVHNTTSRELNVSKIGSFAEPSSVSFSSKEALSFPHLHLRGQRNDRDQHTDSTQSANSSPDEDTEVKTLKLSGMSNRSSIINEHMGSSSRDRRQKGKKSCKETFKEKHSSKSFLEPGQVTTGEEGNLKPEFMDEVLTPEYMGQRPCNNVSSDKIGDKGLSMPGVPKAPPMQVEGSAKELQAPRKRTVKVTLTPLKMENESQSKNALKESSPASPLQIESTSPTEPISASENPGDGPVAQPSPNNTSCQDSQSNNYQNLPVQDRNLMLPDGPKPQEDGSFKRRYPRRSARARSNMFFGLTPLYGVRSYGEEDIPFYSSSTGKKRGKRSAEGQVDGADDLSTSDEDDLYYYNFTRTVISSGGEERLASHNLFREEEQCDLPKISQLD
Histone-lysine N-methyltransferase 2A (Homo sapiens), sequence (Q03164 2719-3969 limits assumed): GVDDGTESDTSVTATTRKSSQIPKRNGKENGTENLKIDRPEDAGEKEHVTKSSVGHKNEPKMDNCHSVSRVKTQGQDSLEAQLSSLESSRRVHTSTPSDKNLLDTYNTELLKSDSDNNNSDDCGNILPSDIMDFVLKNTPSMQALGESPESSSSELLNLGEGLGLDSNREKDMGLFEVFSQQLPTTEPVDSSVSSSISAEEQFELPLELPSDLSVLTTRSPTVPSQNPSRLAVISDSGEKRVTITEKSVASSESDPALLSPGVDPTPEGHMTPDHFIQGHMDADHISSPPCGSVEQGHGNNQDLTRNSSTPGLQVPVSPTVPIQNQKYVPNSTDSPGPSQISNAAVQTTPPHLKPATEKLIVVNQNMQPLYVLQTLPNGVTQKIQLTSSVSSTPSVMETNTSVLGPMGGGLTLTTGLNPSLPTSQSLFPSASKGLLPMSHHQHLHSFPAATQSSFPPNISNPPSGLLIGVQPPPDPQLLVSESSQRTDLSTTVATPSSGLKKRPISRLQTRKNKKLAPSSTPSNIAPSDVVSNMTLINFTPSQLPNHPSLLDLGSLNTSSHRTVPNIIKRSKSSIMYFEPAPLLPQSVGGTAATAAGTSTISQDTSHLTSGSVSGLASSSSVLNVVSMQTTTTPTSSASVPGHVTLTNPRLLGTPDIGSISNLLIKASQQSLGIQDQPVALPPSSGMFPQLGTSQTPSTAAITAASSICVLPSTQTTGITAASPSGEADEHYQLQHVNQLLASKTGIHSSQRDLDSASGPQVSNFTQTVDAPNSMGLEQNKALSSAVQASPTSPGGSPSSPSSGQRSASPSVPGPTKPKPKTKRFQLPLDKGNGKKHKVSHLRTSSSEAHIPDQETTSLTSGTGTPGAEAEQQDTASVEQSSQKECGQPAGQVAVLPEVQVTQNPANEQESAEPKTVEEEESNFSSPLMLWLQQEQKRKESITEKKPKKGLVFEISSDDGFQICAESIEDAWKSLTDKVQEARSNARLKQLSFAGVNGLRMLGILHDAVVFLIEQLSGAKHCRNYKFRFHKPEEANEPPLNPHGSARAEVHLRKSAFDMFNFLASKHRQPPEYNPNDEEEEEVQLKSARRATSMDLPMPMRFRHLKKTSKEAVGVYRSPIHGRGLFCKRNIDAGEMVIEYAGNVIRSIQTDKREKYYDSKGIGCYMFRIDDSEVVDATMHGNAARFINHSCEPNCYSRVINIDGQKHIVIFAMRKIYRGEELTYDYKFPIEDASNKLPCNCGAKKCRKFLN

[5] = target: Phosphorylase b kinase gamma catalytic chain, skeletal muscle/heart isoform (Homo sapiens) (UniProt Q16816); experiment: Selectivity interaction (KinomeScan (DiscoverX)) EUB0000666a PHKG1; conditions: at 10 µM
[6] = target: Serine/threonine-protein kinase Nek6 (Homo sapiens) (UniProt Q9HC98); conditions: at 10 µM
Serine/threonine-protein kinase Nek6 (Homo sapiens), sequence (Q9HC98 whole entry): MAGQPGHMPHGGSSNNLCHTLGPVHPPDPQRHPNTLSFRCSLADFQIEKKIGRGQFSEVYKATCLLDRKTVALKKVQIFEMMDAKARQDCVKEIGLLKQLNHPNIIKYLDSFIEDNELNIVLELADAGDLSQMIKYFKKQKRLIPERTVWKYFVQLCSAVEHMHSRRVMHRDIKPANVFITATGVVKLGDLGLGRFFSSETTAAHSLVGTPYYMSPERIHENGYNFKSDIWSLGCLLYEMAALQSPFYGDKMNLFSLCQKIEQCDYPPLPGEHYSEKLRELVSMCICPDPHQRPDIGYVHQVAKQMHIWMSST

[7] = target: T1, Serine/threonine-protein kinase BRSK1 (Homo sapiens) (UniProt Q8TDC3); experiment: Selectivity interaction (Kinase screening (Nanosyn)) EUB0000604a BRSK1
T1 sequence (whole entry): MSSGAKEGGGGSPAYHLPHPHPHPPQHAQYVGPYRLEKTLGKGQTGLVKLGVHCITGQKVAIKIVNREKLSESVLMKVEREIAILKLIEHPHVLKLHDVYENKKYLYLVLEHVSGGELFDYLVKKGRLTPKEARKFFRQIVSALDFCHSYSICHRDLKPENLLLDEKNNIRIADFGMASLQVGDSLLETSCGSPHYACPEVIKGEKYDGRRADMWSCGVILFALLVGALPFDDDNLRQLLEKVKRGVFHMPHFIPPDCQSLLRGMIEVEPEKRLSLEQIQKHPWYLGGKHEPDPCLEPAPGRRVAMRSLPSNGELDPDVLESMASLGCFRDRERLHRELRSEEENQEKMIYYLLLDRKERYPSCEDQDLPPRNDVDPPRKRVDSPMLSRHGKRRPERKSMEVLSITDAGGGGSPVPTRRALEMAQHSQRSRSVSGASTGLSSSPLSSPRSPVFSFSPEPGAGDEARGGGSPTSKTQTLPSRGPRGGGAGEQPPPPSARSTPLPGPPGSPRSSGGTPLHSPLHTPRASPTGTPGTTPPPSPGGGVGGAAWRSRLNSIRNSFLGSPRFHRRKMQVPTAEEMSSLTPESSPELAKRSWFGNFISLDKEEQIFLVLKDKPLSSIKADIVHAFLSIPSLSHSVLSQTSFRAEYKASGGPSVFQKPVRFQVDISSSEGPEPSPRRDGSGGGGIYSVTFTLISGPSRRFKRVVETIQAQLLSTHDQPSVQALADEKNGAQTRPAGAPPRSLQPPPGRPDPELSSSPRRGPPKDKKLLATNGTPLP

SRSF protein kinase 1 = SRSF protein kinase 1 (Homo sapiens, UniProt Q96SB4); experiment: Selectivity interaction (Upstate Kinase Profiler service (Millipore)) EUB0000056c SRPK1; conditions: at 1 µM
[8] = target: Inhibitor of nuclear factor kappa-B kinase subunit epsilon (Homo sapiens, UniProt Q14164); experiment: Selectivity interaction (Enyzmatic assay) EUB0000601a IKBKE
[9] = target: Calcium/calmodulin-dependent protein kinase type 1 (Homo sapiens) (UniProt Q14012); experiment: Selectivity interaction (KinomeScan (DiscoverX)) EUB0000607a CAMK1; conditions: at 10 µM
[10] = target: Kappa-type opioid receptor (Homo sapiens, UniProt P41145); experiment: Selectivity interaction (Panel of kinases, GPCRs, ion channels and transporters (enzymatic assay)) EUB0000266bCl OPRK1
[11] = target: Receptor tyrosine-protein kinase erbB-2 (Homo sapiens, UniProt P04626); experiment: Selectivity interaction (Kinase panel (Invitrogen)) EUB0000639a ERBB2; conditions: at 200 nM
[12] = target: T2, Serine/threonine-protein kinase LATS1 (Homo sapiens) (UniProt O95835); experiment: Selectivity interaction (ActivX KiNativ screen (kinase selectivity in THP-1 cell lysates)) EUB0000639a LATS1; format: subcellular; conditions: lysate
T2 sequence (whole entry): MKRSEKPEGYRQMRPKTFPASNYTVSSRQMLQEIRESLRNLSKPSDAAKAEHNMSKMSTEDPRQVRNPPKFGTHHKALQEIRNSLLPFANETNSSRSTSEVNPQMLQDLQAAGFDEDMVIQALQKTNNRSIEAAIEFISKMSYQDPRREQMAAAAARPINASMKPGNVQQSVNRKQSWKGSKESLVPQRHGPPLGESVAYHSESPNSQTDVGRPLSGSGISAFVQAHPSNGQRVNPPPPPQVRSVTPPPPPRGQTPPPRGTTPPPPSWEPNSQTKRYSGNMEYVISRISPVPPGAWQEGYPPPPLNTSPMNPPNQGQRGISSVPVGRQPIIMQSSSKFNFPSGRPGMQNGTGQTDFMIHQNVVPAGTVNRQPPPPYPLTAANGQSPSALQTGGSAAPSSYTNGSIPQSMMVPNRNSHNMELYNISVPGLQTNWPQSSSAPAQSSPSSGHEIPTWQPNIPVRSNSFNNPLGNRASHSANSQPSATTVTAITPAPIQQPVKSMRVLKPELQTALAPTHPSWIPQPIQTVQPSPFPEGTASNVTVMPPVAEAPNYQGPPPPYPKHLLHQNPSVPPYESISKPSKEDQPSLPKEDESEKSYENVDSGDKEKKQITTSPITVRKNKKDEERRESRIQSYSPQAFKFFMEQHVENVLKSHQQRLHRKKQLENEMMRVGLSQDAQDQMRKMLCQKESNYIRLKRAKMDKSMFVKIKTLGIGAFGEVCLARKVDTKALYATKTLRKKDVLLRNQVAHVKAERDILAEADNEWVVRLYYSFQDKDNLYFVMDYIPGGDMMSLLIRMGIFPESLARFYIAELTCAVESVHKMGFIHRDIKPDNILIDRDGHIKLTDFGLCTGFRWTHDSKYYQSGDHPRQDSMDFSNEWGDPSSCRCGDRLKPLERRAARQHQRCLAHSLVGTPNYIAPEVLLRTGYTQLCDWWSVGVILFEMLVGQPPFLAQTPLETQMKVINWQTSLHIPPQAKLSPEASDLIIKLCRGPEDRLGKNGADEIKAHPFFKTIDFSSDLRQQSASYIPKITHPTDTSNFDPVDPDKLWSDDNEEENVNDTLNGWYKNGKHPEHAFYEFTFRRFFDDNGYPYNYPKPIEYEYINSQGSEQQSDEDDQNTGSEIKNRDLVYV

[13] = target: TRAF2 and NCK-interacting protein kinase (Homo sapiens) (UniProt Q9UKE5); experiment: Selectivity interaction (Ambit KINOMEscan and KiNATiv profiling in Jurkat cells) EUB0000090b TNIK; format: cell-based; conditions: at 1 µM

Ribosomal protein S6 kinase alpha-4 (Homo sapiens), sequence (O75676 whole entry, looked up): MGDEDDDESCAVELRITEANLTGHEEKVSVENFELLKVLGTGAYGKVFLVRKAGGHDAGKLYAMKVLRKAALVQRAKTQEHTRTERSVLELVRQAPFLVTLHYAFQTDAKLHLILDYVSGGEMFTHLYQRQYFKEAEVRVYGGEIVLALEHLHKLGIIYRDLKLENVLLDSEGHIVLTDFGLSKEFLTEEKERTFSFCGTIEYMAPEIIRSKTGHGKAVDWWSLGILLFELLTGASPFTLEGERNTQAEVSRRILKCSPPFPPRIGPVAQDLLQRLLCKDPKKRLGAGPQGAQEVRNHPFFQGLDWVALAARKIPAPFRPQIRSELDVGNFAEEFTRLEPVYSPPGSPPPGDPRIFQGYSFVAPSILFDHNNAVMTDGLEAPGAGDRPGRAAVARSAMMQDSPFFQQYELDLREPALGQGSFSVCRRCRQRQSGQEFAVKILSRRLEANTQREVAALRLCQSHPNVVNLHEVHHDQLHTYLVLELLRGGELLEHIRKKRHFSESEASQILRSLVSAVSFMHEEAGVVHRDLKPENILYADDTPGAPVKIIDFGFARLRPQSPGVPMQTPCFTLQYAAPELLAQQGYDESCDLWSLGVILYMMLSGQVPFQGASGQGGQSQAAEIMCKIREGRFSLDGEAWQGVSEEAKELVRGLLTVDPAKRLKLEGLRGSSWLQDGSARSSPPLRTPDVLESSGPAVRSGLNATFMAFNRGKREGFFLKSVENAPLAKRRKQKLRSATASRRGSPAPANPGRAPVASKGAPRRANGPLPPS

Compound: COc1cc(N(C)c2ccnc3ccc(C(F)(F)F)cc23)cc(OC)c1OC
- % binding [1]: 82%

Compound: C=CC(=O)Nc1cc(-n2c(=O)ccc3cnc4ccc(-c5ccc(NS(C)(=O)=O)cc5)cc4c32)ccc1C
- % of control ([2]; at 1 µM): 100%
- % of control ([2]; at 10 µM): 100%

Compound: Nc1cnc(N2CCc3cc(S(=O)(=O)Nc4c(F)cc(Cl)cc4F)cc(N4CCCC4=O)c32)nc1 [TP-020n]
- % of control [3]: 88%

Compound: Cc1cc(C)cc([C@H]2c3cc(C)ccc3NC(=O)CN2C(=O)c2ccc(Br)s2)c1
- % of activity ([4]; at 1 µM): 99.3%
- % of activity ([4]; at 10 µM): 100%

Compound: O=C(NOC[C@H](O)CO)c1ccc(F)c(F)c1Nc1ccc(I)cc1F
- % of control [5]: 100%

Compound: Cc1cc([C@@H](C)Nc2ccccc2C(=O)O)c2nc(N3CCOCC3)cc(=O)n2c1 [AZD-6482]
- % of control [6]: 100%

Compound: Cc1cnc(Nc2ccc(F)cc2Cl)nc1-c1c[nH]c(C(=O)N[C@H](CO)c2cccc(Cl)c2)c1
- % of inhibition [7]: 0%

Compound: Cc1ccc(-c2ccc3c(ccc4sc5c(c43)NC[C@@H](C)NC5=O)n2)cn1
- % of inhibition (SRSF protein kinase 1): 34%

Compound: CCc1cc(Nc2nccc(-c3c(-c4ccc(OC)c(C(=O)Nc5c(F)cccc5F)c4)nc4ccccn34)n2)c(OC)cc1N1CCC(N2CCN(S(C)(=O)=O)CC2)CC1
- IC50 [8]: 3.2 µM

Compound: CNC(=O)Nc1ccc(-c2nc(N3CC4CCC(C3)O4)c3cnn(C4CCC5(CC4)OCCO5)c3n2)cc1
- % of control [9]: 93%

Compound: CCn1c(-c2nc3cc(C(=O)N4CCCC(N)C4)ccc3n2C)cc2ccccc21 (stereo not given)
- pXC50 [10]: > 4 M

Compound: CC[C@@H]1[C@H](F)C(=O)N[C@@H]1COc1nccc2cc(C(N)=O)c(OC)cc12 [ZIMLOVISERTIB]
- % of inhibition [11]: -2.18%
- % of inhibition ([12]; at 0.01 µM): -5.5%
- % of inhibition ([12]; at 0.04 µM): -23.7%
- % of inhibition ([12]; at 0.2 µM): -87.3%
- % of inhibition ([12]; at 1 µM): -76.3%
- % of inhibition ([12]; at 5 µM): -29.4%

Compound: CN(C)C/C=C/C(=O)Nc1ccc(C(=O)N2CCCC(Nc3ncc(Cl)c(-c4c[nH]c5ccccc45)n3)C2)cc1 (stereo not given)
- % of control [13]: 91%
